Earlier results as cited in publication doi:10.1101/2023.05.15.540887, “Comparative analysis of drug-like EP300/CREBBP acetyltransferase inhibitors” (bioRxiv, 2023).

Columns and labels:
Design in all cases: method as in ref 29 (a number printed in a supplementary file, which may have a reference list of its own: not looked up in the article's list)
HOP-92 = conditions: Non-SmallCellLung HOP-92; highest log conc -4.0; NCI-60 screen data; cited from earlier work
HCC-2998 = conditions: Colon HCC-2998; highest log conc -4.0; NCI-60 screen data; cited from earlier work
MCF7 = conditions: Breast MCF7; highest log conc -4.0; NCI-60 screen data; cited from earlier work
IGROV1 = conditions: Ovarian IGROV1; highest log conc -4.0; NCI-60 screen data; cited from earlier work
HCT-15 = conditions: Colon HCT-15; highest log conc -4.0; NCI-60 screen data; cited from earlier work
CCRF-CEM = conditions: Leukemia CCRF-CEM; highest log conc -4.0; NCI-60 screen data; cited from earlier work
SN12C = conditions: Renal SN12C; highest log conc -4.0; NCI-60 screen data; cited from earlier work
SF-295 = conditions: CNS SF-295; highest log conc -4.0; NCI-60 screen data; cited from earlier work
NCI-H460 = conditions: Non-SmallCellLung NCI-H460; highest log conc -4.0; NCI-60 screen data; cited from earlier work
COLO205 = conditions: Colon COLO205; highest log conc -4.0; NCI-60 screen data; cited from earlier work
EKVX = conditions: Non-SmallCellLung EKVX; highest log conc -4.0; NCI-60 screen data; cited from earlier work
NCI-H226 = conditions: Non-SmallCellLung NCI-H226; highest log conc -4.0; NCI-60 screen data; cited from earlier work
HCT-116 = conditions: Colon HCT-116; highest log conc -4.0; NCI-60 screen data; cited from earlier work
OVCAR-3 = conditions: Ovarian OVCAR-3; highest log conc -4.0; NCI-60 screen data; cited from earlier work
NCI-H322M = conditions: Non-SmallCellLung NCI-H322M; highest log conc -4.0; NCI-60 screen data; cited from earlier work
MALME-3M = conditions: Melanoma MALME-3M; highest log conc -4.0; NCI-60 screen data; cited from earlier work
BT-549 = conditions: Breast BT-549; highest log conc -4.0; NCI-60 screen data; cited from earlier work
NCI-H522 = conditions: Non-SmallCellLung NCI-H522; highest log conc -4.0; NCI-60 screen data; cited from earlier work
HS578T = conditions: Breast HS578T; highest log conc -4.0; NCI-60 screen data; cited from earlier work
UO-31 = conditions: Renal UO-31; highest log conc -4.0; NCI-60 screen data; cited from earlier work
SF-539 = conditions: CNS SF-539; highest log conc -4.0; NCI-60 screen data; cited from earlier work

SMILES	GI50 AVGDATA (HOP-92)	GI50 AVGDATA (HCC-2998)	GI50 AVGDATA (MCF7)	GI50 AVGDATA (IGROV1)	GI50 AVGDATA (HCT-15)	GI50 AVGDATA (CCRF-CEM)	GI50 AVGDATA (SN12C)	GI50 AVGDATA (SF-295)	GI50 AVGDATA (NCI-H460)	GI50 AVGDATA (COLO205)	GI50 AVGDATA (EKVX)	GI50 AVGDATA (NCI-H226)	GI50 AVGDATA (HCT-116)	GI50 AVGDATA (OVCAR-3)	GI50 AVGDATA (NCI-H322M)	GI50 AVGDATA (MALME-3M)	GI50 AVGDATA (BT-549)	GI50 AVGDATA (NCI-H522)	GI50 AVGDATA (HS578T)	GI50 AVGDATA (UO-31)	further results
COC(=O)N1c2ccc3c(nc(Cc4ccccc4)n3[C@H]3CCC[C@H](C(=O)O)C3)c2CC[C@@H]1C [FT-6876]	-5.79	-5.08	-6.94	-4.68	-4.79	-5.18	-4.76	-4.93	-4.63	-5.31	-4.75	-4.85	-4.75	-4.88	-4.82	-5.21	-4.31	-4.95	-5.49	-5.54	GI50 AVGDATA (SF-539): -4.8
Cc1sc2c(c1C)C(c1ccc(Cl)cc1)=N[C@@H](CC(=O)OC(C)(C)C)c1nnc(C)n1-2 [JQ-1]	-7.74	-6.54	-7.22	-6.19	-6.8	-6.11	-5.71	-6.74	-6.22	-6.84	-5.93	-4.99	-6.51	-6.3	-6.53	-5.32	-5.51	-7.25	-7.25	-7.52	GI50 AVGDATA (SF-539): -6.34
CO[C@H]1CC[C@H](n2c([C@@H]3CCCC(=O)N3c3ccc(F)c(F)c3)nc3cc(-c4c(C)noc4C)ccc32)CC1 [inobrodib]	-5.69	-5.38	-6.2	-5.34	-5.33	-5.33	-4.99	-5.17	-4.58	-5.67	-5.4	-5.37	-5	-4.98	-4.94	-5.76	-4.99	-5.53	-5.68	-5.79	GI50 AVGDATA (SF-539): -5.01
